Reference: patent US5622955A, “Methods of treating cryptosporidium parvum” (The University of North Carolina at Chapel Hill, priority 1995, dated 1997)
Counter-ions that a name gives are not always drawn. Like-named read-outs stand apart in the source and are kept apart here.

Columns and labels:
G. lamblia = assay: 50% inhibitory concentration against G. lamblia; type: cell-based
Excerpt: ^d 50% Inhibitory concentration against G. lamblia, P. carinii
topoisomerase. See, Bell, et al., supra.

Pneumocystis carinii [1] = settings: rat, in vivo
Pneumocystis carinii [2] = assay: In vivo Activity Against Pneumocystis carinii in Rats; settings: saline = 100%
poly dA.dT = assay: DNA binding: increase in thermal melting of poly dA.dT
Excerpt: ^a Increase in thermal melting of poly dA.dT. See, W. Wilson, et al.,

C. Parvum = assay: Inihibition of C. Parvum; type: in vivo
[3] = target: T1, topoisomerase II isolated from P. carinii (Pneumocystis carinii, UniProt A0A0W4ZKQ4); assay: Inhibition of topoisomerase II isolated from P. carinii; type: biochemical
T1 construct: homodimer
T1 sequence (A0A0W4ZKQ4 1-1493): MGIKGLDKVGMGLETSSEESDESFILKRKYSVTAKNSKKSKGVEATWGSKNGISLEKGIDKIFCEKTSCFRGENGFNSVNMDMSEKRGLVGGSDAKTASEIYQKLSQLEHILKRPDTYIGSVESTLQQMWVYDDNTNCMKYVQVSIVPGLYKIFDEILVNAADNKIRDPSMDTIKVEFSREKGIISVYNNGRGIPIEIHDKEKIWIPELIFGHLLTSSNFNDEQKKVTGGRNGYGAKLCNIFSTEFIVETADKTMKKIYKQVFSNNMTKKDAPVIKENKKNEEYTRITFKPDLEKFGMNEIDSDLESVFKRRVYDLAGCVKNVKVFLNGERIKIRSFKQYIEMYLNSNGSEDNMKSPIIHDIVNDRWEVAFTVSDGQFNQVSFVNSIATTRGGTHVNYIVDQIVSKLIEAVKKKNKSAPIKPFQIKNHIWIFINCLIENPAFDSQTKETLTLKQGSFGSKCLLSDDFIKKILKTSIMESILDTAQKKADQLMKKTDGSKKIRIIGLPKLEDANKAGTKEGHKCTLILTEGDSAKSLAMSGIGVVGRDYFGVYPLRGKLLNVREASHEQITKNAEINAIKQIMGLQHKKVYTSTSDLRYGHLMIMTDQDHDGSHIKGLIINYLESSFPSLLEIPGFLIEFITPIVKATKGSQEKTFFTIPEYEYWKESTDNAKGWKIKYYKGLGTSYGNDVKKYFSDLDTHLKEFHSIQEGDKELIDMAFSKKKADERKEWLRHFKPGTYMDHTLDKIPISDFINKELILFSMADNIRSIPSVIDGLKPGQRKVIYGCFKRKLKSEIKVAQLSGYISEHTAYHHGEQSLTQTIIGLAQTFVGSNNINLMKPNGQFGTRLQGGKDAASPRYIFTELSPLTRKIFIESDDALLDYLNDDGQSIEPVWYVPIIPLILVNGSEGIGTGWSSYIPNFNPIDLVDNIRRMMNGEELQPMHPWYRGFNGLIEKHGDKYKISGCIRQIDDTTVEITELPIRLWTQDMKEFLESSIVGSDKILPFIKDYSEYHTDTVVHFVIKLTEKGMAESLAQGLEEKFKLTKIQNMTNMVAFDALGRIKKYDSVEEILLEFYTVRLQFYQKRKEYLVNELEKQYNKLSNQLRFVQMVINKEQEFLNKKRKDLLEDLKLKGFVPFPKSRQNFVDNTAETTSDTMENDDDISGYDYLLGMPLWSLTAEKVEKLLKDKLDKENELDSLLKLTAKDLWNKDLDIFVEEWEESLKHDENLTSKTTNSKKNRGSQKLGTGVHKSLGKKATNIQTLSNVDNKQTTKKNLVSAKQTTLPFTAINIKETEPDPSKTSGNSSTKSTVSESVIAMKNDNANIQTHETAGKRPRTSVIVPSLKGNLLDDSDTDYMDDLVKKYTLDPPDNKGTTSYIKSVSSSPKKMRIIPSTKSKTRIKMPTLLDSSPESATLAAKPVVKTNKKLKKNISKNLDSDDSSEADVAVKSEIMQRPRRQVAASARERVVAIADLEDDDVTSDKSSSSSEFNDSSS
Excerpt: ^c Inhibition of topoisomerase II isolated from P. carinii. See, C.
Dykstra, et al., J. Protozool. 38:78S (1991).

[4] = Giardia duodenalis; read-out: G. lamblia IC50

Row | SMILES | IC50 (G. lamblia; [4]) [µM] | Toxicity (Pneumocystis carinii [1]; 5 mg/kg/day) | cyst/g Lung (Pneumocystis carinii [2]; 5.0 mg/Kg per day) [%] | DNA binding (Increase in thermal melting of poly dA.dT) (poly dA.dT) | cyst/g Lung (Pneumocystis carinii [2]; 2.5 mg/Kg per day) [%] | further results
1 | c1cc(-c2ccc(C3=NCCN3)cc2)nc(-c2ccc(C3=NCCN3)cc2)n1 [Compound 2, 2,4Bis[(4imidazolin-2-yl)phenyl]pyrimidine hydrochloride] | 3 | 0 | 2.4 | – | – | –
2 | N=C(N)c1ccc(OCCCCCOc2ccc(C(=N)N)cc2)cc1 [Pentamidine, reference compound] | – | – | – | 12.8 | – | IC50 (G. lamblia; Giardia duodenalis, read-out: G. lamblia IC50): 2.6 µM
3 | Cl.N=C(N)c1ccc(-c2ccnc(-c3ccc(C(=N)N)cc3)n2)cc1 [Compound 1, 2,4-Bis-(4-guanylphenyl)pyrimidine hydrochloride] | 2 | 0 | 2.4 | 21.5 | – | % efficacy (C. Parvum; 0.1 mg/kg/day): 30%; % efficacy (C. Parvum; 5 mg/kg/day): 68%; % efficacy (C. Parvum; 25 mg/kg/day): 50%; Toxicity (Pneumocystis carinii [1]; 10 mg/kg/day): 1+; cyst/g Lung (Pneumocystis carinii [2]; 10.0 mg/Kg per day): 0.8%
4 | COc1cc(C(=N)NC(C)C)ccc1-c1ccnc(-c2ccc(C(=N)NC(C)C)cc2)n1 [Compound 5, 2-(4-[N-i-propylguanyl]phenyl)-4-(2-methoxy-4-[N-i-propylguanyl]phenyl)pyrimidine] | 36.7 | – | – | 13.9 | 1.0 | Topoisomerase P. Carinii (Inhibition of topoisomerase II isolated from P. carinii) [3]: no
5 | c1cc(-c2ccc(C3=NCCCN3)cc2)nc(-c2ccc(C3=NCCCN3)cc2)n1 [Compound 3, 2,4Bis[(4tetrahydropyrimmidinyl-2-yl)phenyl]pyrimidine hydrochloride] | 0.79 | – | – | 25 | 85.2 | –
6 | c1ccc(-c2nccc(-c3ccc(C4=NCCN4)cc3)n2)cc1 [Compound 4, 2phenyl-4-[4(imidazolin-2-yl)phenyl]pyrimidine hydrochloride] | 2 | – | 21.1 | – | – | –
